# Patent publication US10131648B2, “Substituted benzothiophenyl derivatives as GPR40 agonists for the treatment of type II diabetes” (Janssen Pharmaceutica NV, priority 2014, dated 2018)
# “And” between values parts separate entries of the source, which are not always exact repeats. Identical values can stand only once.
# Target: human GPR40 (Homo sapiens (Human), UniProt O14842)
# Experiment: GPR40 Calcium Flux Assay
# Assay type: cell-based
# Settings: transfected HEK293 cells stably expressing human GPR40; Ca2+ mobilization; mean data; read-out: hGPR40 Ca^2+ Assay EC50
# Chain of human GPR40 (O14842 whole entry): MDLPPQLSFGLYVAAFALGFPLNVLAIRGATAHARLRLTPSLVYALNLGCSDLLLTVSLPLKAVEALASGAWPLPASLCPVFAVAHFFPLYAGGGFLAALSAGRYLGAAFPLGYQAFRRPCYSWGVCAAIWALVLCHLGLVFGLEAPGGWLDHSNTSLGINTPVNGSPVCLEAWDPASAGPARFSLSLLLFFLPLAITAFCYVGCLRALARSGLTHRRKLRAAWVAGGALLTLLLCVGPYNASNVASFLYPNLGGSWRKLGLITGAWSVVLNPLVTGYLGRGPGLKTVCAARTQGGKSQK
row,SMILES,EC50
1,"CC#C[C@@H](CC(=O)O)c1ccc(OCc2ccc3scc(-c4ccccc4C)c3c2)cc1 [Cpd 2, (3S)-3-[4-[[3-(2-Methylphenyl)benzo[b]thiophen-5-yl]methoxy]phenyl]hex-4-ynoic acid]",5 nM
2,"CC#C[C@@H](CC(=O)O)c1ccc(OCc2ccc3scc(-c4ccc(OCCOC)cc4C)c3c2)cc1 [Cpd 16, (3S)-3-(4-((3-(4-(2-Methoxyethoxy)-2-methylphenyl)benzo[b]thiophen-5-yl)methoxy)phenyl)hex-4-ynoic acid]",5 nM
3,"CC#C[C@@H](CC(=O)O)c1ccc(OCc2ccc3scc(-c4ccc(OCCOC)cc4C)c3c2)nc1 [Cpd 77, (3R)-3-(6-((3-(4-(2-Methoxyethoxy)-2-methylphenyl)benzo[b]thiophen-5-yl)methoxy)pyridin-3-yl)hex-4-ynoic acid]",16 nM and 6 nM and 5 nM
4,"CC#C[C@@H](CC(=O)O)c1ccc(OCc2ccc3scc(-c4cccnc4OC)c3c2)cc1 [Cpd 78, (3S)-3-(4-((3-(2-Methoxypyridin-3-yl)benzo[b]thiophen-5-yl)methoxy)phenyl)hex-4-ynoic acid]",9 nM
5,"CC#C[C@@H](CC(=O)O)c1ccc(OCc2ccc3scc(-c4ccccc4OC)c3c2)cc1 [Cpd 79, (3S)-3-(4-((3-(2-Methoxyphenyl)benzo[b]thiophen-5-yl)methoxy)phenyl)hex-4-ynoic acid]",28 nM
6,"CC#C[C@@H](CC(=O)O)c1ccc(OCc2ccc3scc(-c4ccc(OC)nc4C)c3c2)cc1 [Cpd 80, (3S)-3-(4-((3-(6-Methoxy-2-methylpyridin-3-yl)benzo[b]thiophen-5-yl)methoxy)phenyl)hex-4-ynoic acid]",20 nM
7,"CC#C[C@@H](CC(=O)O)c1ccc(OCc2ccc3scc(-c4cnccc4OC)c3c2)cc1 [Cpd 81, (3S)-3-(4-((3-(4-Methoxypyridin-3-yl)benzo[b]thiophen-5-yl)methoxy)phenyl)hex-4-ynoic acid]",11 nM
8,"CC#C[C@@H](CC(=O)O)c1ccc(OCc2ccc3scc(-c4cnc(OC)cc4C)c3c2)cc1 [Cpd 82, (3S)-3-(4-((3-(6-Methoxy-4-methylpyridin-3-yl)benzo[b]thiophen-5-yl)methoxy)phenyl)hex-4-ynoic acid]",37 nM
9,"CC#C[C@@H](CC(=O)O)c1ccc(OCc2ccc3scc(-c4ccncc4OC)c3c2)cc1 [Cpd 83, (3S)-3-(4-((3-(3-Methoxypyridin-4-yl)benzo[b]thiophen-5-yl)methoxy)phenyl)hex-4-ynoic acid]",10 nM
10,"CC#C[C@@H](CC(=O)O)c1ccc(OCc2ccc3scc(-c4ncc(OC)cc4C)c3c2)cc1 [Cpd 84, (3S)-3-(4-((3-(5-Methoxy-3-methylpyridin-2-yl)benzo[b]thiophen-5-yl)methoxy)phenyl)hex-4-ynoic acid]",52 nM
11,"CC#C[C@@H](CC(=O)O)c1ccc(OCc2ccc3scc(-c4ccccc4C)c3c2)nc1 [Cpd 85, (3R)-3-[6-[[3-(2-Methylphenyl)benzo[b]thiophen-5-yl]methoxy]pyridin-3-yl]hex-4-ynoic acid]",7 nM and 6 nM
12,"CC#C[C@@H](CC(=O)O)c1ccc(COc2ccc3scc(-c4ccc(OC5CCOC5)cc4C)c3c2)cc1 (stereo partly drawn) [Cpd 86, (3S)-3-[4-[([3-[2-Methyl-4-(tetrahydrofuran-3-yloxy)phenyl]-1-benzothiophen-5-yl]oxy)methyl]phenyl]hex-4-ynoic acid]",8 nM
13,"CC#C[C@@H](CC(=O)O)c1ccc(OCc2ccc3scc(-c4cc(OCCOC)ccc4C)c3c2)nc1 [Cpd 87, (3R)-3-(6-((3-(5-(2-Methoxyethoxy)-2-methylphenyl)benzo[b]thiophen-5-yl)methoxy)pyridin-3-yl)hex-4-ynoic acid]",11 nM
14,"CC#C[C@@H](CC(=O)O)c1ccc(OCc2ccc3scc(-c4cccc(OCCOC)c4C)c3c2)nc1 [Cpd 88, (3R)-3-(6-((3-(3-(2-Methoxyethoxy)-2-methylphenyl)benzo[b]thiophen-5-yl)methoxy)pyridin-3-yl)hex-4-ynoic acid]",8 nM
15,"CC#C[C@@H](CC(=O)O)c1ccc(OCc2ccc3scc(-c4ncc(OCCOC)cc4C)c3c2)nc1 [Cpd 89, (3R)-3-(6-((3-(5-(2-Methoxyethoxy)-3-methylpyridin-2-yl)benzo[b]thiophen-5-yl)methoxy)pyridin-3-yl)hex-4-ynoic acid]",20 nM
16,"CC#C[C@@H](CC(=O)O)c1ccc(OCc2ccc3scc(-c4cc(Cl)ncc4C)c3c2)nc1 [Cpd 90, (3R)-3-(6-((3-(2-Chloro-5-methylpyridin-4-yl)benzo[b]thiophen-5-yl)methoxy)pyridin-3-yl)hex-4-ynoic acid]",15 nM
17,"CC#C[C@@H](CC(=O)O)c1ccc(OCc2ccc3scc(-c4ncccc4OC)c3c2)cc1 [Cpd 91, (3S)-3-(4-((3-(3-Methoxypyridin-2-yl)benzo[b]thiophen-5-yl)methoxy)phenyl)hex-4-ynoic acid]",17 nM
18,"CC#C[C@@H](CC(=O)O)c1ccc(OCc2ccc3scc(-c4cc(OCCOC)cnc4C)c3c2)nc1 [Cpd 92, (3R)-3-(6-((3-(5-(2-Methoxyethoxy)-2-methylpyridin-3-yl)benzo[b]thiophen-5-yl)methoxy)pyridine-3-yl)hex-4-ynoic acid]",13 nM
19,"CC#C[C@@H](CC(=O)O)c1ccc(OCc2ccc3scc(-c4nc(Cl)ccc4C)c3c2)cc1 [Cpd 93, (3S)-3-(4-((3-(6-Chloro-3-methylpyridin-2-yl)benzo[b]thiophen-5-yl)methoxy)phenyl)hex-4-ynoic acid]",15 nM
20,"CC#C[C@@H](CC(=O)O)c1ccc(OCc2ccc3scc(-c4nc(OC)ccc4C)c3c2)cc1 [Cpd 94, (3S)-3-(4-((3-(6-Methoxy-3-methylpyridin-2-yl)benzo[b]thiophen-5-yl)methoxy)phenyl)hex-4-ynoic acid]",15 nM
21,"CC#C[C@@H](CC(=O)O)c1ccc(OCc2ccc3scc(-c4ccc(CC5CCNCC5)cc4C)c3c2)cc1 [Cpd 95, (3S)-3-(4-((3-(2-Methyl-4-(piperidin-4-ylmethyl)phenyl)benzo[b]-thiophen-5-yl)methoxy)phenyl)hex-4-ynoic acid]",4 nM
22,"CC#C[C@@H](CC(=O)O)c1ccc(OCc2ccc3scc(-c4ccc(C5CCNCC5)cc4C)c3c2)cc1 [Cpd 96, (3S)-3-(4-((3-(2-Methyl-4-(piperidin-4-yl)phenyl)benzo[b]thiophen-5-yl)methoxy)phenyl)hex-4-ynoic acid]",8 nM
23,"CC#CC(CC(=O)O)c1ccc(OCc2ccc3scc(-c4ccccc4C)c3c2)cc1 (centres unmarked) [Cpd 97, 3-(4-((3-(2-Methylphenyl)benzo[b]thiophen-5-yl)methoxy)phenyl)hex-4-ynoic acid]",2 nM
24,"CC#C[C@H](CC(=O)O)c1ccc(OCc2ccc3scc(-c4ccccc4C)c3c2)cc1 [Cpd 98, (3R)-3-[4-[[3-(2-Methylphenyl)benzo[b]thiophen-5-yl]methoxy]phenyl]hex-4-ynoic acid]",160 nM

# Tested on: Male SD rats
# Experiment: Oral Glucose Tolerance Test
# Assay type: in vivo, rat
# Settings: 10 mg/kg, thirty to forty min prior to oGTT (glucose, 2 g/kg, po), blood glucose AUC t=0 to t=120 minutes
# Procedure: Male SD rats (200-250 g) were housed 2 per cage in a temperature-controlled room with a 12-hour light/dark cycle. They were allowed ad libitum access to water and fed with normal rodent chow. The night before the oral glucose tolerance test (oGTT), the rats were transferred to clean cages and fasted overnight. On the morning of the oGTT, the rats were weighed and randomized into groups based on fasted blood glucose and body weight. Rats were dosed with vehicle (0.5% methocel) or compounds (10 mg/kg, po) thirty to forty min prior to the oGTT (glucose, 2 g/kg, po). Blood was collected from the tail vein at 0, 10, 30, 60 and 120 minutes after glucose challenge to measure blood glucose; plasma was used to determine insulin levels. The area under the curve for blood glucose excursion was calculated from t=0 to t=120 minutes. Percent lowering of glucose was calculated from the AUC data with respect to the vehicle-treated group.
row,SMILES,Percent Lowering of Glucose (AUC compound vs. AUC Vehicle) [%]
1,"CC#C[C@@H](CC(=O)O)c1ccc(OCc2ccc3scc(-c4ccccc4C)c3c2)cc1 [Cpd 2, (3S)-3-[4-[[3-(2-Methylphenyl)benzo[b]thiophen-5-yl]methoxy]phenyl]hex-4-ynoic acid]",72
2,"CC#C[C@@H](CC(=O)O)c1ccc(OCc2ccc3scc(-c4ccc(OCCOC)cc4C)c3c2)cc1 [Cpd 16, (3S)-3-(4-((3-(4-(2-Methoxyethoxy)-2-methylphenyl)benzo[b]thiophen-5-yl)methoxy)phenyl)hex-4-ynoic acid]",76
